# Test results from ChEMBL document CHEMBL1201862, “PubChem BioAssay data set” (2004).
#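 Exposure lasted 48 hours, with cells grown in 96-well plates and compounds tested at five concentrations. The concentration for 50% growth inhibition is given as GI50.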 Active and inactive are the calls of the source. Cut-off read from the data, not from the text of the source: active = GI50 up to about 1.1 µM and inactive = higher.
# Columns and labels:
# Experiment in all cases: NCI anticancer screen, dose series, 48 h
# 786-0 = test system: 786-0
# A498 = test system: A498
# A549 = test system: A549
# ACHN = test system: ACHN
# BT-549 = test system: BT-549
# CAKI-1 = test system: CAKI-1
# CCRF-CEM = test system: CCRF-CEM
# COLO 205 = test system: COLO 205
# DU-145 = test system: DU-145
# EKVX = test system: EKVX
# HCT-116 = test system: HCT-116
# HCT-15 = test system: HCT-15
# HL-60 = test system: HL-60
# HOP-62 = test system: HOP-62
# HOP-92 = test system: HOP-92
# HT-29 = test system: HT-29
# Hs-578T = test system: Hs-578T
# IGROV-1 = test system: IGROV-1
# K562 = test system: K562
# KM12 = test system: KM12
# LOX IMVI = test system: LOX IMVI
# M14 = test system: M14
# MCF7 = test system: MCF7
# MDA-MB-231 = test system: MDA-MB-231
# MDA-MB-435 = test system: MDA-MB-435
# MDA-N = test system: MDA-N
# MOLT-4 = test system: MOLT-4
# Malme-3M = test system: Malme-3M
# NCI-H226 = test system: NCI-H226
# NCI-H23 = test system: NCI-H23
# NCI-H460 = test system: NCI-H460
# NCI-H522 = test system: NCI-H522
# NCI/ADR-RES = test system: NCI/ADR-RES
# OVCAR-3 = test system: OVCAR-3
# OVCAR-4 = test system: OVCAR-4
# OVCAR-5 = test system: OVCAR-5
# OVCAR-8 = test system: OVCAR-8
# PC-3 = test system: PC-3
# RPMI-8226 = test system: RPMI-8226
# RXF 393 = test system: RXF 393
# SF-268 = test system: SF-268
# SF-295 = test system: SF-295
# SF-539 = test system: SF-539
# SK-MEL-28 = test system: SK-MEL-28
# SK-MEL-2 = test system: SK-MEL-2
# SK-MEL-5 = test system: SK-MEL-5
# SK-OV-3 = test system: SK-OV-3
# SN12C = test system: SN12C
# SNB-19 = test system: SNB-19
# SNB-75 = test system: SNB-75
# SR = test system: SR
# SW-620 = test system: SW-620
# T47D = test system: T47D
# TK-10 = test system: TK-10
# U-251 = test system: U-251
# UACC-257 = test system: UACC-257
# UACC-62 = test system: UACC-62
# UO-31 = test system: UO-31
compound,measurement,setting,value
COc1c(-c2nc3ccc(N4CCN(C)CC4)cc3[nH]2)cc(OC)c2[nH]c(COC(C)=O)nc12,GI50,786-0,36.6 µM (inactive)
same,GI50,A498,> 100 µM (inactive)
same,GI50,A549,62.1 µM (inactive)
same,GI50,ACHN,63.4 µM (inactive)
same,GI50,BT-549,> 100 µM (inactive)
same,GI50,CAKI-1,> 100 µM (inactive)
same,GI50,CCRF-CEM,29.2 µM (inactive)
same,GI50,COLO 205,50.1 µM (inactive)
same,GI50,DU-145,26.1 µM (inactive)
same,GI50,EKVX,98.4 µM (inactive)
same,GI50,HCT-116,32.4 µM (inactive)
same,GI50,HCT-15,> 100 µM
same,GI50,HL-60,59.8 µM (inactive)
same,GI50,HOP-62,67.1 µM (inactive)
same,GI50,HOP-92,> 100 µM (inactive)
same,GI50,HT-29,36.7 µM (inactive)
same,GI50,Hs-578T,> 100 µM (inactive)
same,GI50,IGROV-1,> 100 µM (inactive)
same,GI50,K562,56.6 µM (inactive)
same,GI50,KM12,31.3 µM (inactive)
same,GI50,LOX IMVI,30.8 µM (inactive)
same,GI50,M14,19.6 µM (inactive)
same,GI50,MCF7,38.7 µM (inactive)
same,GI50,MDA-MB-231,34.2 µM (inactive)
same,GI50,MDA-MB-435,37.8 µM (inactive)
same,GI50,MDA-N,40.4 µM (inactive)
same,GI50,MOLT-4,45 µM (inactive)
same,GI50,Malme-3M,25.1 µM (inactive)
same,GI50,NCI-H226,> 100 µM (inactive)
same,GI50,NCI-H23,65.9 µM (inactive)
same,GI50,NCI-H460,43.1 µM (inactive)
same,GI50,NCI-H522,48.9 µM (inactive)
same,GI50,NCI/ADR-RES,> 100 µM (inactive)
same,GI50,OVCAR-3,> 100 µM (inactive)
same,GI50,OVCAR-4,29.8 µM (inactive)
same,GI50,OVCAR-5,> 100 µM (inactive)
same,GI50,OVCAR-8,55.1 µM (inactive)
same,GI50,PC-3,37.1 µM (inactive)
same,GI50,RPMI-8226,34.7 µM (inactive)
same,GI50,RXF 393,11.8 µM (inactive)
same,GI50,SF-268,94.8 µM (inactive)
same,GI50,SF-295,71.8 µM (inactive)
same,GI50,SF-539,36.6 µM (inactive)
same,GI50,SK-MEL-28,> 100 µM (inactive)
same,GI50,SK-MEL-2,45.9 µM (inactive)
same,GI50,SK-MEL-5,94.6 µM (inactive)
same,GI50,SK-OV-3,63.7 µM (inactive)
same,GI50,SN12C,41.4 µM (inactive)
same,GI50,SNB-19,36 µM (inactive)
same,GI50,SNB-75,9.4 µM (inactive)
same,GI50,SR,27.8 µM (inactive)
same,GI50,SW-620,40.2 µM (inactive)
same,GI50,T47D,24.8 µM (inactive)
same,GI50,TK-10,71.4 µM (inactive)
same,GI50,U-251,48.3 µM (inactive)
same,GI50,UACC-257,53.5 µM (inactive)
same,GI50,UACC-62,> 100 µM (inactive)
same,GI50,UO-31,42.3 µM (inactive)
